Bridges are numbered along the chain shown (N, C = ends). Where no end group is shown, it is not given here.
Tests used:
[1] = tested on: 9O12.2 IgG; test: SPR, 9O12.2 IgG injected over immobilized B-collagelin; assay type: binding; settings: SPR, peptide reduced by DTT on the sensorchip, IgG 8 µg/ml
Experimental: (§1) 9O12.2 IgG was injected over biotin-peptides coupled to an SA-sensorchip in a Biacore 2000 instrument. […] In some experiments, the peptide was reduced by DTT on the sensor chip before the IgG was injected. Competition experiments were performed by mixing the IgG with recombinant soluble GPVI (25 µg.mL^−1). Collagen binding to the peptide was analyzed by injecting type-I collagen (200 µg.mL^−1) onto the peptide-coated sensorchip. Conversely, biotin-peptides (125, 250, 500 and 1000 µg.mL^−1) were perfused over fibrillar collagen immobilized on a CM5-sensorchip.

[2] = tested on: collagen fibers of the infarct scars; test: Post mortem autoradiography of frozen myocardial sections; assay type: in vivo, rat; settings: 99mTc-streptavidin-coupled peptides
Experimental: After sacrificing the animals, the heart was removed and frozen, then 20-micrometer thick myocardial sections were cut perpendicular to the short axis of the ventricles in a cryostat, and exposed in a radioimager for 16 h. According to calibration studies performed with activity standards of tissue-equivalent homogenates, 50 counts/mm^2 of ^99m Tc-labeled tracers corresponded to ∼210 kBq/mg in autoradiography. The myocardial sections used for autoradiography, and contiguous heart sections (5 µm) fixed in acetone (−20°C), were stained with hematoxylin-eosin, Masson's trichrome and picrosirius red to determine the location and extent of the fibrotic myocardial scarring.

[3] = target: fibrillar type I collagen (Homo sapiens, UniProt P02452+P08123); test: SPR, biotin-peptides perfused over collagen-coated sensorchip; assay type: binding; settings: fibrillar type I collagen on CM5-sensorchip
Sequence of fibrillar type I collagen (P02452 162-1218 limits assumed): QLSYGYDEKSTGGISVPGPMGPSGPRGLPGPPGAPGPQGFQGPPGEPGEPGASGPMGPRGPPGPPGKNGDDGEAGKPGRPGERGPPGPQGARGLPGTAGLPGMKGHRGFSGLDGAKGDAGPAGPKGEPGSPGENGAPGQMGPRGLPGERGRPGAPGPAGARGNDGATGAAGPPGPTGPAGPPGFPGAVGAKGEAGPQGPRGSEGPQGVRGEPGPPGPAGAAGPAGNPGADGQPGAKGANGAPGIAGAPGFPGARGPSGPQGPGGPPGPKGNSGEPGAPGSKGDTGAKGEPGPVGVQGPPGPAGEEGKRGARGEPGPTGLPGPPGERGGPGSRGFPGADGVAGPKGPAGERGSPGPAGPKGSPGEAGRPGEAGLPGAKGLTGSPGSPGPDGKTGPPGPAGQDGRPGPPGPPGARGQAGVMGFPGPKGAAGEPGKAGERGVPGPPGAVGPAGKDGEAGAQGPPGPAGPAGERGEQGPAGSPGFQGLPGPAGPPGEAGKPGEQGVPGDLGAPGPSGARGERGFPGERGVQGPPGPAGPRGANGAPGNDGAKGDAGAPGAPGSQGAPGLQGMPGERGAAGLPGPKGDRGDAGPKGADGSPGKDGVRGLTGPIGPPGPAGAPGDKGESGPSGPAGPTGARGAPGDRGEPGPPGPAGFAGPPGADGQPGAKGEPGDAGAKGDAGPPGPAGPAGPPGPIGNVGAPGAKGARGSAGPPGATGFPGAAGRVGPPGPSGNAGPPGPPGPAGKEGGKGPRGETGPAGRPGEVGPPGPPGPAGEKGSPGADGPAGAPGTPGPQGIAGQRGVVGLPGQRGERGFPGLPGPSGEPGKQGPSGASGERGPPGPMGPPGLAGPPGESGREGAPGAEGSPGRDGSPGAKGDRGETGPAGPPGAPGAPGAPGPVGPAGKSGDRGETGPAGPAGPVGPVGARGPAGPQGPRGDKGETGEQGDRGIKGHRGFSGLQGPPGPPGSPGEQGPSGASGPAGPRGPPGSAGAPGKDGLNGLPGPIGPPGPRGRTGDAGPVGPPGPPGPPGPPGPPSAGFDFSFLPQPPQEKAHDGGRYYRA
Sequence of fibrillar type I collagen (P08123 80-1119 limits assumed): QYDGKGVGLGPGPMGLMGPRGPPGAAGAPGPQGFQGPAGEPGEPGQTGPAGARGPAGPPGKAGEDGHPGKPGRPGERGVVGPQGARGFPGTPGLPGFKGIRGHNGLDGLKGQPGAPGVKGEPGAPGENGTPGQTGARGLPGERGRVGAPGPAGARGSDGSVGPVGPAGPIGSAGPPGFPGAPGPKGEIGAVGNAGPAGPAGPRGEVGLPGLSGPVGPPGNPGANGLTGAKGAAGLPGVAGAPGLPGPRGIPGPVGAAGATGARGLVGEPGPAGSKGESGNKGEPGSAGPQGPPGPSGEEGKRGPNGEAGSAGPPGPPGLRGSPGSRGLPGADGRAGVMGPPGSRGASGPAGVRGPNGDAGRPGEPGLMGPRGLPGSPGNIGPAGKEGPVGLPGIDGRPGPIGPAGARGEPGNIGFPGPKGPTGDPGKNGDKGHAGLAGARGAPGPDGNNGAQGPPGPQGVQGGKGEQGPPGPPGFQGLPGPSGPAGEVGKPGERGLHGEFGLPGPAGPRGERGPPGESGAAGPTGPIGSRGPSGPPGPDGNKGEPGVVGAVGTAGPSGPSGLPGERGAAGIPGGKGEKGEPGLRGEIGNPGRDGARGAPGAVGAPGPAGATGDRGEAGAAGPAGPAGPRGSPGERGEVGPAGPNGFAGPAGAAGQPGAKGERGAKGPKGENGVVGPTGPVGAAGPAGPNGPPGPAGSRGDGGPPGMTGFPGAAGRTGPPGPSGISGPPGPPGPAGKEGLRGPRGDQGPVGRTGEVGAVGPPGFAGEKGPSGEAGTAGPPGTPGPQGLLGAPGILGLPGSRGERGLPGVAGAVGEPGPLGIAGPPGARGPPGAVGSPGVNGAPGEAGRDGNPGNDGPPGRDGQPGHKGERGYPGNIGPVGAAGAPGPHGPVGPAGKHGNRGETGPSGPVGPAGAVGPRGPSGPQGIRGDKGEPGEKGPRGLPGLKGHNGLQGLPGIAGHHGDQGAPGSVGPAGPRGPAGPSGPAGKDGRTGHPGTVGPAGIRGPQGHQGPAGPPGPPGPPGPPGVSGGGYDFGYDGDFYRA
Experimental: as §1

| Molecule | Binding of 9O12.2 IgG to reduced collagelin [1] | Autoradiographic labeling of the infarct scar ([2]; frozen myocardium sections 6-8 hours after injection) | Mean infarct-to-remote myocardium radioactivity ratio ([2]; rats with MI, mean±SEM, p<0.006) | Binding to collagen-coated sensorchip [3] |
| --- | --- | --- | --- | --- |
| CSCC[C@@H]1NC(=O)[C@H](C(C)C)NC(=O)[C@H](CCCNC(=N)N)NC(=O)CNC(=O)[C@@H]2CCCN2C(=O)[C@@H](NC(=O)CNC(=O)[C@H](CO)NC(=O)CNC(=O)[C@H](CO)NC(=O)CCCC[C@@H]2SC[C@@H]3NC(=O)N[C@@H]32)CSSC[C@@H](C(N)=O)NC(=O)[C@@H]2CCCN2C(=O)CNC(=O)[C@H](CCC(=O)O)NC(=O)[C@H](CC(=O)O)NC(=O)[C@H](CC(=O)O)NC(=O)CNC(=O)[C@H](CC(C)C)NC(=O)[C@H](Cc2c[nH]cn2)NC(=O)[C@H](CC(C)C)NC(=O)CNC(=O)[C@H](Cc2c[nH]cn2)NC1=O [collagelin] | did not bind | – | – | – |
| SGSGCGPQGARGLTGASAGGPC (disulfide 5-22 (inferred)) [reference compound] | – | little or no uptake | 1.82±0.32 | did not bind |

Reference: PMC2680759, “Non-Invasive Molecular Imaging of Fibrosis Using a Collagen-Targeted Peptidomimetic of the Platelet Collagen Receptor Glycoprotein VI” (PLoS ONE, 2009)
